The compounds below were run on Meloidogyne incognita (assay: Test against Meloidogyne spp. (soil pot test)). Settings: 672 h; 10 ppm in soil contaminated by Meloidogyne incognita; tomato (Kurihara), greenhouse 4 weeks; from root knot index; read-out: controlling effect.
Assay type: in vivo
Description: Test Against Meloidogyne spp. (Soil Pot Test)
Preparation of Test Agent:
1 Part of the active compound is impregnated to 99 parts of pumice to make fine granules.
A compound of the formula (I) was added to the soil contaminated by Meloidogyne incognita so that the chemical concentration would be 10 ppm and homogeneously mixed by stirring. A pot ( 1/5000 are) was filled with the soil. About 20 seeds of tomato (variety: Kurihara) were sown per pot. After cultivation in a greenhouse for 4 weeks, they were carefully pulled out not to damage the roots and the root knot index and the controlling effect were determined as follows.
1: A few knots were formed
2: Knots were formed to a medium extent
3: Knots were formed to an intense extent
4: Knots were formed to the most intense extent (corresponds to non-treatment). [formula]
Evaluation of the ability of the tested compounds to control the nematodes was done according to the values obtained for the controlling effect and with the following standards. […]
a: Controlling effect 100-71% b: Controlling effect 70-50% c: Controlling effect less than 50%

Compound | pest or weed control at 10 ppm [%]
[O-][S+](CCC(F)=C(F)F)c1ncco1 (centres unmarked) [Compound 2, 2-(3,4,4-trifluoro-3-butenylsulfinyl)oxazole] | 71 to 100
COCc1cnc(SCCC(F)=C(F)F)o1 [Compound 46, 5-methoxymethyl-2-(3,4,4-trifluoro-3-butenylthio)oxazole] | 71 to 100
OCc1coc(SCCC(F)=C(F)F)n1 [Compound 75, 4-hydroxymethyl-2-(3,4,4-trifluoro-3-butenylthio)oxazole] | 71 to 100
FC(F)=C(F)CCSc1ncc(Cl)o1 [Compound 4, 5-chloro-2-(3,4,4-trifluoro-3-butenylthio)oxazole] | 71 to 100
CS(=O)(=O)Oc1coc(SCCC(F)=C(F)F)n1 [Compound 127, 4-methylsulfonyloxy-2-(3,4,4-trifluoro-3-butenylthio)oxazole] | 71 to 100
COCc1coc(SCCC(F)=C(F)F)n1 [Compound 78, 4-methoxymethyl-2-(3,4,4-trifluoro-3-butenylthio)oxazole] | 71 to 100
FC(F)=C(F)CCSc1ncco1 [Compound 1, 2-(3,4,4-trifluoro-3-butenylthio)oxazole] | 71 to 100
FC(F)=C(F)CCSc1nc(Cl)co1 [Compound 52, 4-chloro-2-(3,4,4-trifluoro-3-butenylthio)oxazole] | 71 to 100
CSCc1coc(SCCC(F)=C(F)F)n1 [Compound 86, 4-methylthiomethyl-2-(3,4,4-trifluoro-3-butenylthio)oxazole] | 71 to 100
FC(F)=C(F)CCSc1nc(CBr)c(Br)o1 [Compound 39, 5-bromo-4-bromomethyl-2-(3,4,4-trifluoro-3-butenylthio)oxazole] | 71 to 100
O=S(=O)(CCC(F)=C(F)F)c1ncco1 [Compound 3, 2-(3,4,4-trifluoro-3-butenylsulfonyl)oxazole] | 71 to 100

Reference: patent US20030109563A1, “Nematicidal trifluorobutenes” (priority 2000, published 2003)
